This passage reports IC50 results from BindingDB's records for patent US20250188037 (Takeda Pharmaceutical, 2025).

The target of assay [1] is Somatostatin receptor type 4 (Homo sapiens, UniProt P31391). Briefly: SSTR4 I-125 Somatostatin Competition Binding Assay for Selectivity Versus SSTR4.
Protocol: Then 1 μg of SSTR4 membranes in 50 μL assay buffer are added per well. The Plate is incubated for 60 minutes at room temperature. […] The contents of the assay plate are transferred to filters with a TomTech harvester and washed 5 times with 20 mM HEPES, 100 mM NaCl. […] The scintillator sheets are melted to filters using a heat block. The filters are then read in a MicroBeta scintillation counter. Binding Ki curves are generated using Activity Base for Screening Data Management and the results are reported as pIC50.
The target in assay [2] is Somatostatin receptor type 1 (Homo sapiens, UniProt P30872). Nature of the assay: SSTR1 I-125 Somatostatin Competition Binding Assay for Selectivity Versus SSTR1.
Sequence of Somatostatin receptor type 1 (P30872 whole entry): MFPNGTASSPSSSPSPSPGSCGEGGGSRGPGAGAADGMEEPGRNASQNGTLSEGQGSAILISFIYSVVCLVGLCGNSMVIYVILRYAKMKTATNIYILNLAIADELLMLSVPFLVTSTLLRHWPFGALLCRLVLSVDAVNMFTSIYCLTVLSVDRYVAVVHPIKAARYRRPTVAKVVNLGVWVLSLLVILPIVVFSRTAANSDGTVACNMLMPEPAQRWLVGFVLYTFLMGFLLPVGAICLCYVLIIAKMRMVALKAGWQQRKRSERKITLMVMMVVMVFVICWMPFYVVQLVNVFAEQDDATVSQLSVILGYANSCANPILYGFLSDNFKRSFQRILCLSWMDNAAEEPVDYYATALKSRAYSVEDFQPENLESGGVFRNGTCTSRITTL
Protocol: Then 10 μg of SSTR1 membranes in 50 μL assay buffer are added per well. The plate is incubated for 60 minutes at room temperature. […] The contents of the assay plate are transferred to filters with a TomTech harvester and washed 5 times with 20 mM HEPES, 100 mM NaCl. […] The scintillator sheets are melted to the filters using a heat block. The filters are then read in a MicroBeta scintillation counter. Binding Ki curves are generated using Activity Base for Screening Data Management and the results are reported as pIC50.

Sequence of Somatostatin receptor type 4 (P31391 whole entry): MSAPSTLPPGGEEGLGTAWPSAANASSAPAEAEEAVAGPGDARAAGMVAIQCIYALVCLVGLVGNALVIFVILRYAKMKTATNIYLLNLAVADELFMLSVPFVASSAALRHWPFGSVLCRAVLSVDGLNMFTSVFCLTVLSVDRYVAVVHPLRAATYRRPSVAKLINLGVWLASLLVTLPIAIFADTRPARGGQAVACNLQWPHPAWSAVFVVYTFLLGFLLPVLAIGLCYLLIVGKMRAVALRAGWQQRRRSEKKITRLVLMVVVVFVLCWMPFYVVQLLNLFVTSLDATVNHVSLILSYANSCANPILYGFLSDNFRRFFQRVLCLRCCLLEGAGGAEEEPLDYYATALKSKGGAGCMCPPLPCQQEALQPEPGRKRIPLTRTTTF

By IC50 is commonly meant the point on the concentration scale where inhibition reaches its midpoint. A high value points to a need for much substance. Consider `O=C(N[C@H]1CCNC[C@@H]1F)C1(Cc2cccc(F)c2)CC1` [US20250188037, Example 44], for which the 50% inhibitory concentration (IC50) in assay [1] is 87.1 nM; in assay [2] it was over 50100 nM.
